Tests used:
[1] = test system: alpha-2 adrenergic receptor; assay: tail flick test (thermal antinociception), intrathecal drugs; assay type: in vivo, rat
[2] = test system: alpha-2 adrenergic receptor; assay: paw pressure test (mechanical antinociception), intrathecal drugs; assay type: in vivo, rat
Procedure: (§1) Experiments were conducted using adult male Sprague-Dawley rats (Charles River, St. Constant, QC, Canada) weighing between 200-250 grams. Animals were housed individually in standard laboratory cages, maintained on a 12-hour light/dark cycle, and provided with food and water ad libitum. The surgical placement of chronic indwelling intrathecal catheters (polyethylene PE 10 tubing, 7.5 cm) into the spinal subarachnoid space was made under 4% halothane anesthesia, using the method of Yaksh and Rudy Physiol. Behav. 1976 7:1032-1036). Specifically, the anesthetized animal was placed prone in a stereotaxic frame, a small incision made at the back of the neck, and the atlanto-occipital membrane overlying the cisterna magna was exposed and punctured with a blunt needle. The catheter was inserted through the cisternal opening and slowly advanced caudally to position its tip at the lumbar enlargement. The rostral end of the catheter was exteriorized at the top of the head and the wound closed with sutures. Animals were allowed 3-4 days recovery from surgery and only those free from neurological deficits, such as the hindlimb or forelimb paralysis or gross motor dysfunction, were included in the study. All drugs were injected intrathecally as solutions dissolved in physiological saline (0.9%) through the exteriorized portion of the catheter at a volume of 10 μl, followed by a 10 μl volume of 0.9% saline to flush the catheter.
(§2) The paw pressure test (Loomis et al., Pharm. Biochem. 1987 26:131-139) was used to measure the response to a mechanical nociceptive stimulus. Pressure was applied to the dorsal surface of the hind paw using an inverted air-filled syringe connected to a gauge and the value at which the animal withdrew its paw was recorded. A maximum cutoff pressure of 300 mmHg was used to avoid tissue damage.
A single injection of clonidine was administered intrathecally and the response measured in the tail flick and paw pressure test. […] Following drug administration, nociceptive testing was performed every 10 minutes for the first 60 minutes and every 30 minutes for the following 120-150 minute period. Results for atipemazole are depicted in FIG. 1A (tail flick) and FIG. 1B (paw pressure).
(§3) For the in vivo studies, tail flick and paw pressure values were converted to a maximum percentage effect (M.P.E.): M.P.E.=100×[post-drug response−baseline response]/[maximum response−baseline response]. Data represented in the figures are expressed as mean (±S.E.M.). The ED50 values were determined using a non-linear regression analysis (Prism 2, GraphPad Software Inc., San Diego, Calif., USA). Statistical significance (p<0.05, 0.01. or 0.001) was determined using a one-way analysis of variance followed by a Student Newman-Keuls post hoc test for multiple comparisons between groups.

[3] = test system: alpha-2 adrenergic receptor; assay: acute tolerance to spinal L-norepinephrine analgesia, paw pressure test; assay type: in vivo, rat
Procedure: (§4) The effect of normal saline (20 μl) was also evaluated by injection at 90 minute intervals. Pain responses were evaluated in the tail flick and paw pressure test at 30 minute intervals.
as §1, §2, §3

[4] = test system: alpha-2 adrenergic receptor; assay: acute tolerance to spinal L-norepinephrine analgesia, tail flick test; assay type: in vivo, rat
Procedure: as §4, §1
The tail flick test (D'amour & Smith, J. Pharmacol. Exp. Ther. 1941 72:74-79) was used to measure the response to a thermal nociceptive stimulus. Radiant heat was applied to the distal third of the animal's tail and the response latency for tail withdrawal from the source was recorded using an analgesia meter (Owen et al., J. Pharmacol. Methods 1981 6:33-37)). The stimulus intensity was adjusted to yield baseline response latencies between 2-3 seconds. To minimize tail damage, a cutoff of 10 seconds was used as an indicator of maximum antinociception.
as §3

alpha-2 adrenoceptors = conditions: versus yohimbine; cited from earlier work
[5] = test system: alpha-2 adrenergic receptor; assay: tail flick test (thermal antinociception), intrathecal drugs; assay type: in vivo, rat; remark: listed apart in the source
Procedure: as §1, with “Animals were allowed 3-4 days recovery from surgery and only those free from neurological deficits, such as the hindlimb or forelimb paralysis or gross motor dysfunction, were included in the study. All drugs were injected intrathecally as solutions dissolved in physiological saline (0.9%) through the exteriorized portion of the catheter at a volume of 10 μl, followed by a 10 μl volume of 0.9% saline to flush the catheter.” left out
The tail flick test (D'amour & Smith, J. Pharmacol. Exp. Ther. 1941 72:74-79) was used to measure the response to a thermal nociceptive stimulus. Radiant heat was applied to the distal third of the animal's tail and the response latency for tail withdrawal from the source was recorded using an analgesia meter (Owen et al., J. Pharmacol. Methods 1981 6:33-37)). […]
A single injection of clonidine was administered intrathecally and the response measured in the tail flick and paw pressure test. […]
as §3

[6] = yohimbine 0.0002, 0.005 and 0.02 ng with clonidine 50 nmoles (13.3 μg) intrathecal
[7] = clonidine 50 nmoles (13.3 μg) intrathecal, alone
[8] = clonidine 50 nmoles (13.3 μg) intrathecal, alone, listed as Clonidine
[9] = clonidine 200 nmoles intrathecal, alone
[10] = single spinal dose of norepinephrine (30 μg), alone
[11] = 24 hours after three successive injections of norepinephrine alone
[12] = norepinephrine alone, 30 μg x3 at 90 minute intervals
[13] = atipemazole 0.08 ng with L-norepinephrine 30 μg intrathecal
[14] = atipemazole 0.0008, 0.008 and 0.08 ng with clonidine 50 nmoles intrathecal
[15] = 24 hours after treatment, atipemazole 0.008 or 0.8 ng combined with norepinephrine
[16] = atipemazole 0.8 ng with L-norepinephrine 30 μg, three intrathecal injections at 90 minute intervals
[17] = atipemazole 0.008 or 0.8 ng combined with norepinephrine, x3, 24 hours after
[18] = combination of norepinephrine 30 μg and atipemazole 0.8 ng, x3 at 90 minute intervals
[19] = atipemazole 1, 5, 10 μg co-administered with clonidine 200 nmoles intrathecal

COC(=O)[C@@H]1[C@H]2C[C@H]3c4[nH]c5ccccc5c4CCN3C[C@@H]2CC[C@@H]1O [yohimbine]
effect on clonidine analgesic response [1, 6]: significantly augmented | effect on clonidine analgesic response [2, 6]: significantly augmented

Clc1cccc(Cl)c1N=C1NCCN1 [clonidine]
analgesic response [1, 7]: submaximal analgesic response | analgesic response [1, 8]: submaximal analgesia | analgesic response [1, 9]: maximal analgesic response | analgesic response [2, 7]: submaximal analgesic response | analgesic response [2, 8]: submaximal analgesia | analgesic response [2, 9]: a lesser effect

NC[C@H](O)c1ccc(O)c(O)c1 [norepinephrine, L-norepinephrine]
time at which analgesia terminated [1, 10]: 180 min | time of peak analgesia [1, 10]: 30 min | L-norepinephrine ED50 versus saline control group [3, 11]: increased significantly | analgesic response at 240 minutes, after the third dose [3, 12]: significantly declined towards pre-drug baseline value | L-norepinephrine ED50 versus saline control group [4, 11]: increased significantly | analgesic response at 240 minutes, after the third dose [4, 12]: significantly declined towards pre-drug baseline value | time at which analgesia terminated [2, 10]: 180 min | time of peak analgesia [2, 10]: 30 min

CCC1(c2cnc[nH]2)Cc2ccccc2C1 [atipemazole]
effect on norepinephrine analgesia [1, 13]: extended norepinephrine analgesia | effect on clonidine analgesic response [1, 14]: significantly augmented | potency as a displacer of clonidine relative to yohimbine (alpha-2 adrenoceptors): about 100 times | rightward shift of the L-norepinephrine cumulative dose-response curve [3, 15]: prevented | effect on decline of norepinephrine analgesia on repeated injection [3, 16]: inhibited the decline of norepinephrine analgesia | effect on increase of L-norepinephrine ED50 [3, 17]: completely prevented the increase in ED50 values | analgesic response at 240 minutes, after the third dose [3, 18]: sustained the maximal analgesic level | rightward shift of the L-norepinephrine cumulative dose-response curve [4, 15]: prevented | effect on decline of norepinephrine analgesia on repeated injection [4, 16]: inhibited the decline of norepinephrine analgesia | effect on increase of L-norepinephrine ED50 [4, 17]: completely prevented the increase in ED50 values | analgesic response at 240 minutes, after the third dose [4, 18]: sustained the maximal analgesic level | effect on peak clonidine analgesia ([5]; atipemazole 10 μg (highest dose) with clonidine 200 nmoles intrathecal): almost abolishing the response | effect on peak clonidine analgesia [5, 19]: dose-related decrease | dose antagonizing the analgesic action of clonidine ([5]; intrathecal, co-administered with clonidine 200 nmoles): greater than 1 microgram | effect on norepinephrine analgesia [2, 13]: extended norepinephrine analgesia | effect on clonidine analgesic response [2, 14]: significantly augmented | effect on clonidine response [2, 19]: decreased clonidine response in the paw pressure test but only at the highest dose
